pIC50: −log10 of the molar value.
Tests used:
[1] = target: recombinant human DPPI (Cathepsin C) (Homo sapiens (Human), UniProt P53634); assay: Inhibition of human DPPI (Cathepsin C); format: biochemical; conditions: substrate Gly-Arg-AMC
How it was run: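 Recombinant human DPPI in MES buffer pH 6.0 (5 mM DTT, 0.1% BSA); fluorogenic substrate at 50 μM final, 30 min at room temperature, stopped with 1 μM Gly-Phe-DMK. Background-subtracted fluorescence expressed as percent of vehicle control; IC50 derived.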

[2] = target: recombinant human Cathepsin K (Homo sapiens (Human), UniProt P43235); assay: Inhibition of human Cathepsin K; format: biochemical; conditions: substrate Z-Gly-Pro-Arg-AMC
How it was run: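 Proenzyme activated in pH 3.5 sodium acetate for 30 min at room temperature. Enzyme (2 ng/μL final) preincubated 10 min with compound (0.1 nM–100 μM, 1% DMSO) in pH 5.5 acetate/EDTA/L-cysteine buffer, then reacted 60 min at room temperature with Z-Gly-Pro-Arg-AMC. Stopped with 1 μM E64; fluorescence Ex 360/Em 460 nm; IC50 from background-subtracted percent of vehicle control.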

[3] = Determination of metabolic stability with human liver microsomes; conditions: human, pooled human liver microsomes, pH 7.6

Sequence of recombinant human DPPI (Cathepsin C) (P53634 231-394): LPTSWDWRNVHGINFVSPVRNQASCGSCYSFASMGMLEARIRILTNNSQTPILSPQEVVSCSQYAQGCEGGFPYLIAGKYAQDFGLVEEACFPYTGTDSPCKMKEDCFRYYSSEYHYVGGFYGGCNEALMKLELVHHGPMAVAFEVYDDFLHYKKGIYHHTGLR
Sequence of recombinant human DPPI (Cathepsin C) (P53634 395-463): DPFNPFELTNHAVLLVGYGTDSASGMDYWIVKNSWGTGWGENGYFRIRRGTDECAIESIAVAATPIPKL
Sequence of recombinant human DPPI (Cathepsin C) (P53634 25-134): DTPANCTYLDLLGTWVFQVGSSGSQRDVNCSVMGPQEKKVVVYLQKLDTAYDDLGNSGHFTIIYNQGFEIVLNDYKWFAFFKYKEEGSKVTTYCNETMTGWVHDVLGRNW
Sequence of recombinant human Cathepsin K (P43235 115-329): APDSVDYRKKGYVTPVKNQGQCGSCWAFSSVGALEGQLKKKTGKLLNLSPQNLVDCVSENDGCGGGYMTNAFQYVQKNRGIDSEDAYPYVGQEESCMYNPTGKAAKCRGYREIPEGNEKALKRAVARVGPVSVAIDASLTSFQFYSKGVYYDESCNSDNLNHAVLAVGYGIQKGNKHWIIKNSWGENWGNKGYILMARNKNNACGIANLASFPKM

SMILES	pIC50 [1]	pIC50 [2]	half-life at 1 μM [3] [h]
CN1C(=O)Cc2ccc(-c3ccc(C[C@@H](C#N)NC(=O)[C@H]4N[C@@H]5CC[C@H]4C5)c(F)c3)cc21 [Example 2, (1S,2S,4R)—N-[(1S)-1-cyano-2-[2-fluoro-4-(1-methyl-2-oxo-indolin-6-yl)phenyl]ethyl]-3-azabicyclo[2.2.1]heptane-2-carboxamide]	8.70	5.55	> 2.08
N#C[C@H](Cc1ccc(-c2ccc3c(c2)COC3=O)cc1F)NC(=O)[C@H]1N[C@@H]2CC[C@H]1C2 [Example 3, (1S,2S,4R)—N-[(1S)-1-cyano-2-[2-fluoro-4-(1-oxo-3H-isobenzofuran-5-yl)phenyl]ethyl]-3-azabicyclo[2.2.1]heptane-2-carboxamide]	9.15	5.68	0.95
COCCn1cc(-c2ccc(C[C@@H](C#N)NC(=O)[C@H]3N[C@@H]4CC[C@H]3C4)c(F)c2)cn1 [Example 44]	–	5.40	> 2.17
COCCn1cc(-c2ccc(CC(C#N)NC(=O)[C@H]3N[C@@H]4CC[C@H]3C4)c(F)c2)cn1 (stereo partly shown) [Example 97]	–	5.10	> 2.17
CN1Cc2cc(-c3ccc(C[C@@H](C#N)NC(=O)[C@H]4N[C@@H]5CC[C@H]4C5)c(F)c3)ccc2S1(=O)=O [Example 169]	–	5.28	> 2.17
N#C[C@H](Cc1ccc([C@@H]2CCN3CCOC[C@H]3C2)cc1F)NC(=O)[C@H]1N[C@@H]2CC[C@H]1C2 [Example 283]	–	5.44	> 2.17
N#C[C@H](Cc1ccc(-n2cc(C(F)(F)F)cn2)cc1F)NC(=O)[C@H]1N[C@@H]2CC[C@H]1C2 [Example 285]	–	5.06	> 2.17
Cn1c(=O)c2cc(CC(C#N)NC(=O)[C@H]3N[C@@H]4CC[C@H]3C4)ccc2c2ccc(Cl)cc21 (stereo partly drawn) [Example 305, (1S,2S,4R)—N-[2-(3-chloro-5-methyl-6-oxo-phenanthridin-8-yl)-1-cyano-ethyl]-3-azabicyclo[2.2.1]heptane-2-carboxamide]	8.16	–	1.52
CNC(=O)Cc1ccc2[nH]c(=O)c3cc(CC(C#N)NC(=O)[C@H]4N[C@@H]5CC[C@H]4C5)ccc3c2c1 (stereo partly shown) [Example 306]	8.15	–	> 2.17
N#Cc1cc(F)c2[nH]c(=O)c3cc(CC(C#N)NC(=O)[C@H]4N[C@@H]5CC[C@H]4C5)ccc3c2c1 (stereo partly shown) [Example 307]	8.14	–	> 2.17
N#CC(Cc1ccc2c(c1)c(=O)[nH]c1c(F)cccc12)NC(=O)[C@H]1N[C@@H]2CC[C@H]1C2 (stereo partly shown) [Example 308]	8.08	–	> 2.17
N#CC(Cc1ccc2c(c1)c(=O)[nH]c1c(F)cc(F)cc12)NC(=O)[C@H]1N[C@@H]2CC[C@H]1C2 (stereo partly shown) [Example 310]	8.03	–	> 2.17
CS(=O)(=O)c1ccc2[nH]c(=O)c3cc(CC(C#N)NC(=O)[C@H]4N[C@@H]5CC[C@H]4C5)ccc3c2c1 (stereo partly shown) [Example 313]	7.87	–	> 2.17
N#CC(Cc1ccc2c(c1)c(=O)[nH]c1ccc(N)cc12)NC(=O)[C@H]1N[C@@H]2CC[C@H]1C2 (stereo partly shown) [Example 314]	7.85	–	> 2.17
N#C[C@H](Cc1ccc(N2CC3(CNC3)C2)cc1F)NC(=O)[C@H]1N[C@@H]2CC[C@H]1C2 [Example 327]	8.47	–	> 2.17
N#C[C@H](Cc1ccc(N2CCN(C3CCOC3)CC2)cc1F)NC(=O)[C@H]1N[C@@H]2CC[C@H]1C2 (stereo partly shown) [Example 331]	–	5.82	> 2
N#CC(Cc1ccc2c(c1)c(=O)[nH]c1c(C(=O)NC3CC3)cccc12)NC(=O)[C@H]1N[C@@H]2CC[C@H]1C2 (stereo partly shown) [Example 341]	8.12	–	> 2.17
CN(C)CCn1cc(-c2ccc(C[C@@H](C#N)NC(=O)[C@H]3N[C@@H]4CC[C@H]3C4)c(F)c2)ccc1=O [Example 342]	8.89	–	> 2.17
CNc1nc2cc(-c3ccc(C[C@@H](C#N)NC(=O)[C@H]4N[C@@H]5CC[C@H]4C5)c(F)c3)ccc2[nH]1 [Example 347]	8.07	–	> 2.17
